Marks after values point to notes of the source that are not given here. No end group written: not given here.
What was measured:
Type in all cases: in vivo, BALB/c mice
NK cell = NK cell cytotoxicity activity test (YAC-1 target cells, MTT) on spleen cells of treated mice; details: IFN-γ and IL-2 groups 3×10^5 IU/kg/day, X ± SD
Experimental: (§1) The above substances were all dissolved in 0.5 ml saline and injected intraperitoneal (i.p.) for 15 continuous days, once per day.
(§2) Ten mice per group. The day after the last test substance administration, the mice were sacrificed by cervical dislocation. The spleen was isolated aseptically and manually dispersed in cold D-Hank's solution using an injection needle. The dispersed cell suspension was further sieved through a 100 gauge 150 μm diameter stainless steel sieve. After centrifugation at 200 g for 10 minutes, the supernatant was discarded. The cell pellet was re-suspended in 10 volume of Tris-NH4Cl buffer and then kept standing still for 10 minutes at room temperature. The suspended cells were collected by centrifugation at 150 g for 10 minutes. The cells were washed 2-4 times with cold D-Hank's solution by re-suspending and collecting by centrifugation with condition as described above. The washed cells were then diluted to the desired cell densities by RPMI-1640 culture medium, containing 10% fetal bovine serum.
Mice spleen cells were prepared to 4×10^6/ml as described in section 1.1 above. Target cells YAC-1 were brought to log phase and adjusted to 1×10^5/ml. Using a 96 wells cell culture plate, 100 μl mouse spleen cells and 100 μl culture medium were added to the control well containing only the spleen cells; 100 μl target cells and 100 μl culture medium were added to the control well containing only target cells; 100 μl mouse spleen cells and 100 μl target cells were added to the NK activity assay well. Three parallel sets of the above were prepared per mouse.
Samples were centrifuged at 150 g for 10 minutes to collect the cells. The supernatant was discarded and 50 μl/well MTT of 1 mg/ml was added. The reaction mixture was then shaken for 2 minutes, and incubated at 37° C., 5% CO2 for 4 hours. The supernatant was discarded after centrifugation at 150 g for 10 minutes. 120 μl 40 mM HCl-2-propanol was added and shaken for 3 minutes. An ELISA reader was used to obtain OD570nm of each well referenced at 630 nm.

anti-SRBC antibody = experiment: Sheep Red Blood Cell (SRBC) hemolysis test, anti-SRBC antibody formation; details: SRBC on day 12, IFN-γ and IL-2 groups 3×10^5 IU/kg/day, X ± SD
Experimental: Sheep red blood cells (SRBC) were prepared by collecting blood from cervical vein and put into a sterile flask with glass beads. The flask was shaken for 3 minutes and the blood then mixed with Alsever solution (glucose 2.05 g, NaCl 0.4 g, […] 0.8 g, adjust to 100 ml with distilled water) and stored at 4° C. Immediately before use, samples were centrifuged at 130 g, 5 minutes to collect the SRBC. The cells were washed two times by re-suspension and centrifugation in normal saline. Then the cell pellet was collected by centrifugation at 180 g for 10 minutes and re-suspended in saline to make the final working SRBC suspension, 2% (v/v).
Complement was prepared by adding 10 volumes of fresh Cavy serum into one volume centrifuge packed SRBC, and then gently shaking for 30 minutes at 4° C. The SRBC was removed by centrifugation at 200 g for 10 minutes. 10 volumes of normal saline were added to obtain the working complement solution.
The test substances were administered as described in section 1.1, plus intraperitoneal injection 0.2 ml SRBC per mouse on day 12. On the day after the last test substance administration (day 16), blood was collected from the eye canthus and left at room temperature for one hour for serum exudation. After centrifugation at 200 g for 10 minutes, the serum was diluted by 500 times with normal saline.
To 1 ml diluted mouse serum of each mouse, 0.5 ml SRBC suspension was added. Ice cold. Then 1 ml working complement solution was added and incubated at 37° C. water bath for 10 minutes. Reactions were terminated by ice cold. Samples were then centrifuged at 200 g for 10 minutes to obtain the supernatant.
To 1 ml of this supernatant, 3 ml Drabkin solution was added and left at room temperature for 10 minutes. OD540nm was obtained.
Reference OD540nm was obtained by mixing 0.25 ml SRBC suspension with Drabkin solution to 4 ml and placed at room temperature for 10 minutes before OD540nm was taken. Sample serum index=(OD540nm of test sample[…]reference OD540nm)×500 3. The Effect of Peptides on the Phagocytosis Function of Mononuclear Phagocyte and the Weight of Immune Organ^[8,9].

[1] = immunity organ weight test (thymus gland index, spleen index); details: X ± SD
Experimental: as §1
(§3) One day after the last test substance administration (day 16), the liver, spleen, and thymus gland were separated and blotted dry with filter paper and weighed. The phagocytosis index α was calculated as below: α=(^3√K)(W÷WLS) key: W: body weight WLS: weight of liver plus spleen Thymus gland index(%)=(thymus weight/body weight)×100% Spleen index(%)=(spleen weight/body weight)×100%

T lymphocyte [2] = experiment: T lymphocyte transformation test (ConA, MTT) on spleen cells of treated mice; design: key: OD of assay wells divided by OD of control wells; details: IFN-γ and IL-2 groups 3×10^5 IU/kg/day, X ± SD
Experimental: as §1, §2
(§4) Spleen cells of density 1×10^6/ml were placed onto a 96 wells cell culture plate, 100 μl/well, three parallel wells each of the assay sample and control sample per mouse. To the assay wells, 100 μl/well ConA of 100 μg/ml in RPMI-1640 was added, and 100 μl/well plain RPMI-1640 was used for the controls. The cells were incubated for 66 hrs at 37° C., 5% CO2. The cells were then pelleted by centrifugation at 150 g for 10 minutes.
50 μl/well MTT of 1 mg/ml in RPMI-1640 was added to the cell pellet and the cells re-suspended by shaking for 2 minutes. The incubation was continued for 4 hours. The supernatant was discarded after centrifugation at 150 g for 10 minutes. 120 μl 40 mM HCl-2-propanol was added to the cell pellet and shaken for 3 minutes. to obtain OD570nm of each well referenced at 630 nm. An ELISA reader was used
Each mouse formed three assay wells and three control wells. The Stimulation Index (SI) of each mouse was obtained by first deriving the average OD of the three parallel wells, then dividing the value of the assay wells by the control wells.

T lymphocyte [3] = experiment: T lymphocyte IL-2 secretion test (HT-2 cell bioassay of ConA supernatant); details: IFN-γ and IL-2 groups 3×10^5 IU/kg/day, X ± SD
Experimental: as §1, §4
HT-2 cells at log phase were collected by centrifugation at 150 g for 10 minutes, and washed three times with cold Hank's solution by re-suspension and centrifugation. The collected HT-2 cells were re-suspended in RPMI-1640 and incubated at 37° C., 5% CO2 for 30 minutes. The cells were further washed twice with RPMI-1640 by re-suspension and centrifugation, and re-suspended to final concentration of 2×10^5/ml with RPMI-1640.
rIL-2 was diluted to the following concentration with RPMI-1640: 500 IU/ml, 250 IU/ml, 125 IU/ml, 62.5 IU/ml, 31.25 IU/ml, and […].
A 96 well cell culture plate was set up with three parallel wells per combination:
Negative control: 100 μl RPMI-1640+100 μl HT-2 cell suspension
rIL-2 standard: 100 μl rIL-2 solution+100 μl HT-2 cell suspension
Assay well: 100 μl diluted supernatant+100 μl HT-2 cell suspension
The plate was incubated at 37° C., 5% CO2 for 68 hours, then centrifuged at 150 g for 15 minutes and the supernatant removed. 100 μl 0.5 mg/ml MTT in RPMI-1640 without phenolsulfonphthalein was added into each well. After shaking for 3-4 minutes to re-suspend the cells, continue to incubate for another 4 hours. Samples were then centrifuged at 150 g for 15 minutes and the supernatant was removed. To each well, 120 μl 40 mM HCl-2-propanol was added, mixed for 3-4 minutes and OD analyzed at 570 nm, referenced at 630 nm with an ELISA plate reader.
The average OD of the three parallel wells of each dilution was taken and plotted against concentration on a semi-log paper, concentration on the X-axis. The concentration at 50% OD saturation was obtained for both the testing supernatant and rIL-2.

mononuclear phagocyte = experiment: carbon particle clearance test, phagocytotic activity of mononuclear phagocyte; design: key: α = (cube root of K)×(body weight ÷ liver+spleen weight); details: peptide 0.5 μg/kg/day i.p. 15 days; IFN-γ and IL-2 groups 3×10^5 IU/kg/day; X ± SD
Experimental: On the next day after the last test substance administration (day 16), the mice were injected with […] body weight India ink (5 times dilution with normal saline) from the tail vein.
One minute and five minutes after Indian ink injection, 20 μl blood was obtained from the eye can thus with a heparinized tubing. The blood was mixed with 2 ml 0.1% w/v Na2CO3 and then OD680nm obtained. The outline clear index K was calculated by the following formula: K=(lgA1−lgA2)÷(t2−t1) Key: A1: OD680nm at first minute A2: OD680nm at fifth minute t2: 5 minutes […]
as §3

[4] = peptide 500 μg/kg/day i.p. 15 days
[5] = peptide 0.5 μg/kg/day i.p. 15 days
[6] = peptide 5 μg/kg/day i.p. 15 days
[7] = peptide 50 μg/kg/day i.p. 15 days
[8] = peptide 5 μg/kg/day i.p. 15 days, IFN-γ and IL-2 groups 3×10^5 IU/kg/day
[9] = peptide 50 μg/kg/day i.p. 15 days, IFN-γ and IL-2 groups 3×10^5 IU/kg/day
[10] = peptide 500 μg/kg/day i.p. 15 days, IFN-γ and IL-2 groups 3×10^5 IU/kg/day
[11] = peptide 0.5 μg/kg/day i.p. 15 days, IFN-γ and IL-2 groups 3×10^5 IU/kg/day

Substance | NK cell cytotoxic activity (NK cell activity index) (NK cell; [4]) [%] | anti-SRBC antibody formation (sample serum index) (anti-SRBC antibody; [5]) | anti-SRBC antibody formation (sample serum index) (anti-SRBC antibody; [6]) | anti-SRBC antibody formation (sample serum index) (anti-SRBC antibody; [7]) | anti-SRBC antibody formation (sample serum index) (anti-SRBC antibody; [4]) | weight of thymus gland (thymus gland index) [1, 8] | weight of thymus gland (thymus gland index) [1, 9] | weight of spleen (spleen index) [1, 4] [%] | stimulation index (T lymphocyte transformation) (T lymphocyte [2]; [6]) | stimulation index (T lymphocyte transformation) (T lymphocyte [2]; [4]) | activity of T lymphocyte in secreting IL-2 (T lymphocyte [3]; [6]) [IU] | activity of T lymphocyte in secreting IL-2 (T lymphocyte [3]; [4]) | weight of spleen (spleen index) [1, 9] [%] | weight of thymus gland (thymus gland index) [1, 10] | phagocytotic index (mononuclear phagocyte) | NK cell cytotoxic activity (NK cell activity index) (NK cell; [7]) [%] | weight of thymus gland (thymus gland index) [1, 11] | stimulation index (T lymphocyte transformation) (T lymphocyte [2]; [7]) | NK cell cytotoxic activity (NK cell activity index) (NK cell; [5]) [%]
Ala Ala Phe [CMS023] | 79 ± 12 | 108 ± 21*^@^ Unit | 166 ± 27*^@^ Unit | 84 ± 11*^@^ Unit | 110 ± 45*^@^ Unit | 0.23 ± 0.06 % | 0.20 ± 0.02*^@^ % | 0.36 ± 0.06 | – | – | – | – | – | – | – | – | – | – | –
Ala Gly Asp Asp Ala Pro Arg Ala Val Phe (AGDDAPRAVF; listed as Sus scrofa) [CMS007] | – | – | 122 ± 12*^@^ Unit | – | 69 ± 17*^@ Unit | – | – | 0.32 ± 0.05 | 1.7 ± 0.1 | 1.6 ± 0.1 | 64 ± 12 | 86 ± 15*^ IU | – | – | – | – | – | – | –
Phe Asn Glu Glu (FNEE; listed as Sus scrofa) [CMS029] | 87 ± 4 | 18 ± 7* Unit | 147 ± 23*^@^ Unit | 143 ± 13*^@^ Unit | 115 ± 22*^@^ Unit | 0.21 ± 0.03 % | 0.18 ± 0.05 % | – | – | 1.7 ± 0.3 | – | – | 0.42 ± 0.04 | 0.22 ± 0.04*^@^ % | – | – | – | – | –
Phe Glu Glu Asn Met (FEENM; listed as Sus scrofa) [CMS027] | 88 ± 8 | 99 ± 14*^@^ Unit | 117 ± 45*^@^ Unit | 93 ± 11*^@^ Unit | – | – | 0.21 ± 0.03*^@^ % | 0.37 ± 0.03 | – | – | – | – | – | 0.20 ± 0.03*^ % | 6.4 ± 0.6 | – | – | – | –
Phe Glu Ser Phe (FESF; listed as Sus scrofa) [CMS033] | 89 ± 8 | 78 ± 12*^@ Unit | 128 ± 39*^@^ Unit | 112 ± 15*^@^ Unit | 143 ± 27*^@^ Unit | 0.20 ± 0.02 % | 0.18 ± 0.03 % | – | – | – | – | – | – | 0.25 ± 0.04*^@^ % | – | – | – | – | –
TTYNSIM [CMS026] | 89 ± 7 | 19 ± 6* Unit | 191 ± 17*^@^ Unit | 98 ± 9*^@^ Unit | – | 0.31 ± 0.05*^@^ % | 0.27 ± 0.02*^@^ % | – | – | – | – | – | – | 0.20 ± 0.03*^ % | – | 76 ± 9 | 0.21 ± 0.05 % | – | –
VVYPWTQRF [CMS002] | – | 4 ± 1* Unit | – | – | 87 ± 18*^@ Unit | 0.24 ± 0.05*^ % | 0.21 ± 0.02*^@^ % | – | – | 1.8 ± 0.3 | – | – | – | – | – | – | 0.26 ± 0.06*^@^ % | 2.6 ± 0.3*^@^ | 76 ± 9
